Assay results taken from publication PMC5369532, “NMR-filtered virtual screening leads to non-metal chelating metallo-β-lactamase inhibitors” (Chemical Science, 2016).

Legend:
L1 = L1 (Stenotrophomonas maltophilia, UniProt P52700); assay: biochemical
Method: (§1) Except where noted, recombinant forms of NDM-1, VIM-2, SPM-1, IMP-1, and BcII MBLs were produced in Escherichia coli and assays were carried out as described previously10. The IC50 values of all the compounds for VIM-2 were determined using […]
(§2) concentrations (0 μM, 1 μM, and 100 μM, see Fig. S8). The selectivity profiles of […]
(§3) as described above. The inhibitory activities of these compounds against CphA (B2 MBL)13 and L1 (B3 MBL)14 were determined using meropenem and nitrocefin, […]
(§4) at 100 μM. […]
(§5) MBL; IMP, Imipenemase; NDM, New Delhi MBL; TEM-1: Temomeira-type 1 […]
(§6) b The enzyme concentrations of the purified proteins were determined by measuring Abs@280nm using a NanoDrop (ThermoFisher) spectrometer and calculated molar extinction coefficient for each sample; concentrations of diluted solutions used in the assay were calculated from the original concentration. […]
(§7) negative controls. These were tested in same assay conditions but at 2mM instead of 100uM compound concentration. […]

CphA = CphA (Aeromonas hydrophila, UniProt P26918); assay: biochemical
Chain of CphA (P26918 28-254): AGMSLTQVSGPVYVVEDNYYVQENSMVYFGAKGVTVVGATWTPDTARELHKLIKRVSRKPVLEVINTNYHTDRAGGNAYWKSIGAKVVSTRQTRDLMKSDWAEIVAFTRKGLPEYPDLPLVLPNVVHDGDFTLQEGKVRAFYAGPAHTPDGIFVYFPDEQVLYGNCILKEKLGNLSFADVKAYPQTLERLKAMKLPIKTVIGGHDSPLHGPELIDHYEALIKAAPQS
Method: as §1, §2, §3, §4, §5, §6, §7

NDM-1 = biological target: T1, NDM-1 (Klebsiella pneumoniae, UniProt C7C422); assay: NDM-1 inhibition, selectivity profile (FC5 substrate); assay type: biochemical; settings: Fig. 4
T1 construct: made in house; host or cells: Escherichia coli
T1 sequence (C7C422 29-270, looked up, species assumed): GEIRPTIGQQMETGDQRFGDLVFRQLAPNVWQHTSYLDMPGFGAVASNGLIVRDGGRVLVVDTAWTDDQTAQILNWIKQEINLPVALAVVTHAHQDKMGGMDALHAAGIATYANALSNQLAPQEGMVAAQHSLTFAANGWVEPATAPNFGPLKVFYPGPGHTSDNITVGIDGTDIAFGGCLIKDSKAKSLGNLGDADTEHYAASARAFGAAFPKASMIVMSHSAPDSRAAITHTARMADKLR
Method: as §1
(§8) the FC-5 based assay10. […]
(§9) concentrations (0 μM, 1 μM, and 100 μM, see Fig. S8). The selectivity profiles of compounds of interest against other B1 MBLs including VIM-511, VIM-110, NDM-1, SPM-1, and BcII, and TEM-112 (class A SBL) were determined using the same method as described above. The inhibitory activities of these compounds against CphA (B2 […]
(§10) Enzymea Categorya [E]b, (nM) Substrate [Substrate], (μM) […]
(§11) CphA Class B2 MBL 2.5 Meropenem 125 […]
(§12) TEM-1 Class A SBL 2.5 FC5 5 a MBL: Metallo β-lactamase; SBL: serine β-lactamase; VIM, Verona Integron–encoded MBL; IMP, Imipenemase; NDM, New Delhi MBL; TEM-1: Temomeira-type 1 […]
as §6
(§13) negative controls. These were tested in same assay conditions but at 2mM instead of 100uM compound concentration.

BcII = biological target: T2, BcII (Bacillus cereus, UniProt P04190); assay: BcII inhibition, selectivity profile (FC5 substrate); assay type: biochemical; settings: Fig. 4
T2 construct: made in house; host or cells: Escherichia coli
T2 sequence (P04190 31-257): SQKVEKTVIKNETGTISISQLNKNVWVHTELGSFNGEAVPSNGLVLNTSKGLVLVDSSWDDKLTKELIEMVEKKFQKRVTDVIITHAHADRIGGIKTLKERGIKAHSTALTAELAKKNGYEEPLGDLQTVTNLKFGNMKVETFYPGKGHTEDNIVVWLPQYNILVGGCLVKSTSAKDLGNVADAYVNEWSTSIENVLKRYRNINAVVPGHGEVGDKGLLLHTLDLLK
Method: as §1, §8, §9, §10, §11, §12, §6, §13

TEM-1 = TEM-1 (Escherichia coli, UniProt P62593); assay: TEM-1 inhibition, selectivity profile (FC5 substrate); assay type: biochemical; settings: Fig. 4
Chain of TEM-1 (P62593 24-286 limits assumed): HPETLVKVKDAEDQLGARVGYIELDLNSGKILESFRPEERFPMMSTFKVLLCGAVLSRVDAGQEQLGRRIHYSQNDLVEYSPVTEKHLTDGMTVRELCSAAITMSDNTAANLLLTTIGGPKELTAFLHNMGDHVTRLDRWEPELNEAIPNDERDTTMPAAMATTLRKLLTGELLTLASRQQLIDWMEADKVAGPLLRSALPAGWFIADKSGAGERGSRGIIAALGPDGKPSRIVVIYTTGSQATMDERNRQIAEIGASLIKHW

SPM-1 = SPM-1 (Pseudomonas aeruginosa, UniProt Q8G9Q0); assay: SPM-1 inhibition, selectivity profile (FC5 substrate); assay type: biochemical; settings: Fig. 4
Chain of SPM-1 (Q8G9Q0 entry or part of it): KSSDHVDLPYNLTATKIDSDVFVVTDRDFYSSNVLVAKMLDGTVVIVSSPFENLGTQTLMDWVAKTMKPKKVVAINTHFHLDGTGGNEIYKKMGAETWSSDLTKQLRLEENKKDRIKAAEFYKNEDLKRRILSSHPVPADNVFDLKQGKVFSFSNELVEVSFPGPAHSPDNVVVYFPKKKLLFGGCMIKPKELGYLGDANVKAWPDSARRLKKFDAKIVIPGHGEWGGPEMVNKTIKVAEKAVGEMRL
Method: as §1, §8, §9, §10, §11, §12, §6, §13

apo-VIM-2 = apo-VIM-2 (Escherichia coli, UniProt Q5U7L7); assay type: binding; settings: 50 μM apo enzyme, 50 μM compound, 50 mM Tris-D11 pH 7.5
Method: (§14) Except where noted, recombinant forms of NDM-1, VIM-2, SPM-1, IMP-1, and BcII MBLs were produced in Escherichia coli and assays were carried out as described […]
(§15) previously10. […]
(§16) Nuclear Magnetic Resonance (NMR) spectra were recorded using a Bruker AVIII 600 MHz NMR spectrometer equipped with a BB-19F/1H Prodigy N2 cryoprobe using 5 mm diameter NMR tubes (Norell). Typical experimental parameters for Carr-Purcell-Meiboom-Gill (CPMG) NMR spectroscopy were: total echo time, 40 ms; […]
(§17) The PROJECT-CPMG sequence
(§18) (90°x−[τ−180°y−τ−90°y−τ−180°y−τ]n−acq) was applied. 15 Water suppression was achieved by pre-saturation. Data were processed with Bruker 3.1 software. Prior to […]
(§19) Fourier transformation, data were multiplied with an exponential function with 0.5 Hz […]
(§20) line broadening. […]

di-Zn(II) VIM-2 = biological target: T3, di-Zn(II) VIM-2 (Escherichia coli, UniProt Q5U7L7); assay type: binding; settings: 50 μM enzyme, 50 μM Zn(II), 50 μM compound, 50 mM Tris-D11 pH 7.5
T3 construct: made in house
Method: as §14, §15, §16, §17, §18, §19, §20

VIM-1 = VIM-1 (Pseudomonas aeruginosa, UniProt A0A0F7KYQ8); assay: biochemical; settings: n ≥ 3
VIM-2 = biological target: T4, VIM-2 (Escherichia coli, UniProt Q5U7L7); assay: biochemical; assay type: biochemical
T4 construct: made in house; host or cells: Escherichia coli
Method: as §1, §2
as described above. The inhibitory activities of these compounds against CphA (B2 […]
as §5, §6, §7

Chain of L1 (P52700 34-290): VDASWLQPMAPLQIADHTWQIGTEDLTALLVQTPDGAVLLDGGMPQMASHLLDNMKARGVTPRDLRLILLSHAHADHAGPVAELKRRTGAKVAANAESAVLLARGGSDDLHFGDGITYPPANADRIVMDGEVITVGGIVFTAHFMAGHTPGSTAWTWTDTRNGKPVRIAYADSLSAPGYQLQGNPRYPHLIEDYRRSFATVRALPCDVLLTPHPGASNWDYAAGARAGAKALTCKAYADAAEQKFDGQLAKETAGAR

| Compound | IC50 (L1) [µM] | IC50 (CphA) [µM] | IC50 (NDM-1) [µM] | IC50 (BcII) [µM] | inhibition of class A serine β-lactamase TEM-1 (in words) (TEM-1) | IC50 (SPM-1) [µM] | binding to apo-VIM-2 by 1H CPMG NMR (apo-VIM-2) | binding to di-Zn(II) VIM-2 by 1H CPMG NMR (di-Zn(II) VIM-2) | IC50 (VIM-1) [µM] | differences between the inhibitory activity with or without excess Zn(II) (VIM-2; 0 μM, 1 μM and 100 μM Zn(II)) | IC50 (VIM-2; FC-5 based assay, n ≥ 3, read-out: IC50 (VIM-2)) [µM] |
| --- | --- | --- | --- | --- | --- | --- | --- | --- | --- | --- | --- |
| O=C(O)c1cccc2c1C(=O)N(Cc1c(F)cccc1Cl)C2 [Compound 16] | > 400 | > 400 | > 400 | > 400 | no inhibition was observed | > 400 |  |  |  |  |  |
| O=C(O)c1cccc2c1C(=O)N(c1cccc(C(F)(F)F)c1)C2 [Compound 17] | > 400 | > 400 | > 400 | > 400 | no inhibition was observed | > 400 | binding and bind | binding and bind | > 400 | no obvious differences | 32.8 |
